{"source": "patent US11840528B2", "about": "(Hoffmann-La Roche Inc., priority 2018, dated 2023)", "key": {"h-GABA-A α5β3γ2 [1]": {"molecular_target": "T1, h-GABA-A α5β3γ2 (Homo sapiens, UniProt P18507+P31644)", "assay": "[3H]flumazenil competition binding assay, membranes of HEK293 cells expressing GABAA receptors", "summary_of_the_method": "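Membranes from HEK293 cells transiently expressing human α5β3γ2 GABAA receptors, in Krebs-tris buffer pH 7.5, competed against [3H]flumazenil for 1 hour at 4° C to equilibrium. Bound radioactivity collected on GF/C filters and counted by liquid scintillation; Ki values are means of two determinations.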"}, "h-GABA-A α5β3γ2 [2]": {"molecular_target": "T1, h-GABA-A α5β3γ2", "assay": "Two-electrode voltage clamp electrophysiology in Xenopus laevis oocytes expressing GABAA receptors, modulation of GABA EC20 current", "assay_type": "cell-based", "set-up": "host or cells: Xenopus laevis oocytes micro-injected with RNA transcripts of the subunits", "summary_of_the_method": "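Human α5β3γ2 GABAA receptors were expressed in Xenopus oocytes by RNA injection, with γ2 RNA 5–10-fold higher, and recorded 3–5 days later by two-electrode voltage clamp at −80 mV at room temperature. The test compound, at about 30× its Ki, was co-applied during a second GABA EC20 pulse. Efficacy is the extremum of the point-by-point ratio to the first response, expressed as 100*(Fold increase−1).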"}, "[3]": {"settings": "displacement of [3H]-Flumazenil 0.5 nM, HEK293 cells expressing human receptors, mean of two determinations, Table 1"}, "[4]": {"settings": "% modulation of GABA EC20 = 100*(Fold increase-1), Table 1"}, "[5]": {"settings": "test compound at approx. 30 fold its Ki, GABA at EC20, Table 1"}, "[6]": {"settings": "reference compounds, % modulation of GABA EC20, Table 2"}}, "data": [{"molecule": "Cc1ccc(-c2noc(C)c2Cn2ncc(N3CC(OC4(C)CC4)C3)cc2=O)nn1", "note": "[Example 305, 5-[3-(1-methylcyclopropoxy)azetidin-1-yl]-2-[[5-methyl-3-(6-methylpyridazin-3-yl)isoxazol-4-yl]methyl]pyridazin-3-one]", "values": [{"measurement": "Ki", "setting": "h-GABA-A α5β3γ2 [1]; [3]", "result": 2.5, "unit": "nM"}, {"measurement": "Efficacy (GABA) %", "setting": "h-GABA-A α5β3γ2 [2]; [4]", "result": 100, "unit": "%"}, {"measurement": "Fold increase h-GABA-A α5β3γ2 oocyte", "setting": "h-GABA-A α5β3γ2 [2]; [5]", "result": 2}]}, {"molecule": "Cc1ccc(-c2noc(C)c2Cn2ncc(N3CC(OCC(F)F)C3)cc2=O)nn1", "note": "[Example 306, 5-(3-(2,2-difluoroethoxy)azetidin-1-yl)-2-((5-methyl-3-(6-methylpyridazin-3-yl)isoxazol-4-yl)methyl)pyridazin-3(2H)-one]", "values": [{"measurement": "Ki", "setting": "h-GABA-A α5β3γ2 [1]; [3]", "result": 1.2, "unit": "nM"}, {"measurement": "Efficacy (GABA) %", "setting": "h-GABA-A α5β3γ2 [2]; [4]", "result": 101, "unit": "%"}, {"measurement": "Fold increase h-GABA-A α5β3γ2 oocyte", "setting": "h-GABA-A α5β3γ2 [2]; [5]", "result": 2.01}]}, {"molecule": "Cc1ccc(-c2noc(C)c2Cn2ncc(N3CC4(CCC(C)(C)O4)C3)cc2=O)nn1", "note": "[Example 310, 5-(6,6-dimethyl-5-oxa-2-azaspiro[3.4]octan-2-yl)-2-[[5-methyl-3-(6-methylpyridazin-3-yl)isoxazol-4-yl]methyl]pyridazin-3-one]", "values": [{"measurement": "Ki", "setting": "h-GABA-A α5β3γ2 [1]; [3]", "result": 14.2, "unit": "nM"}, {"measurement": "Efficacy (GABA) %", "setting": "h-GABA-A α5β3γ2 [2]; [4]", "result": 105, "unit": "%"}, {"measurement": "Fold increase h-GABA-A α5β3γ2 oocyte", "setting": "h-GABA-A α5β3γ2 [2]; [5]", "result": 2.05}]}, {"molecule": "Cc1ccc(-c2noc(C)c2Cn2ncc(N3CC4(CC(OC(F)F)C4)C3)cc2=O)nn1", "note": "[Example 315, 5-[6-(difluoromethoxy)-2-azaspiro[3.3]heptan-2-yl]-2-[[5-methyl-3-(6-methylpyridazin-3-yl)isoxazol-4-yl]methyl]pyridazin-3-one]", "values": [{"measurement": "Ki", "setting": "h-GABA-A α5β3γ2 [1]; [3]", "result": 4, "unit": "nM"}, {"measurement": "Efficacy (GABA) %", "setting": "h-GABA-A α5β3γ2 [2]; [4]", "result": 140, "unit": "%"}, {"measurement": "Fold increase h-GABA-A α5β3γ2 oocyte", "setting": "h-GABA-A α5β3γ2 [2]; [5]", "result": 2.4}]}, {"molecule": "Cc1ccc(-c2noc(C)c2Cn2ncc(N3CC4(CCCCCO4)C3)cc2=O)nn1", "note": "[Example 316, 2-[[5-methyl-3-(6-methylpyridazin-3-yl)isoxazol-4-yl]methyl]-5-(5-oxa-2-azaspiro[3.6]decan-2-yl)pyridazin-3-one]", "values": [{"measurement": "Ki", "setting": "h-GABA-A α5β3γ2 [1]; [3]", "result": 4.3, "unit": "nM"}, {"measurement": "Efficacy (GABA) %", "setting": "h-GABA-A α5β3γ2 [2]; [4]", "result": 100, "unit": "%"}, {"measurement": "Fold increase h-GABA-A α5β3γ2 oocyte", "setting": "h-GABA-A α5β3γ2 [2]; [5]", "result": 2}]}, {"molecule": "Cc1onc(-c2ccc(Cl)nc2)c1Cn1ncc(N2CC3(C[C@H](C)CCO3)C2)cc1=O", "note": "[Example 322, (R)-2-((3-(6-chloropyridin-3-yl)-5-methylisoxazol-4-yl)methyl)-5-(8-methyl-5-oxa-2-azaspiro[3.5]nonan-2-yl)pyridazin-3(2H)-one]", "values": [{"measurement": "Ki", "setting": "h-GABA-A α5β3γ2 [1]; [3]", "result": 71.1, "unit": "nM"}, {"measurement": "Efficacy (GABA) %", "setting": "h-GABA-A α5β3γ2 [2]; [4]", "result": 73, "unit": "%"}, {"measurement": "Fold increase h-GABA-A α5β3γ2 oocyte", "setting": "h-GABA-A α5β3γ2 [2]; [5]", "result": 1.73}]}, {"molecule": "CCc1onc(-c2ccc(C)nn2)c1Cn1ncc(N2CC3(CCCCO3)C2)cc1=O", "note": "[Example 324, 2-((5-ethyl-3-(6-methylpyridazin-3-yl)isoxazol-4-yl)methyl)-5-(5-oxa-2-azaspiro[3.5]nonan-2-yl)pyridazin-3(2H)-one]", "values": [{"measurement": "Ki", "setting": "h-GABA-A α5β3γ2 [1]; [3]", "result": 20, "unit": "nM"}, {"measurement": "Efficacy (GABA) %", "setting": "h-GABA-A α5β3γ2 [2]; [4]", "result": 166, "unit": "%"}, {"measurement": "Fold increase h-GABA-A α5β3γ2 oocyte", "setting": "h-GABA-A α5β3γ2 [2]; [5]", "result": 2.66}]}, {"molecule": "Cc1ccc(-c2noc(CF)c2Cn2ncc(N3CC4(CCCCO4)C3)cc2=O)nn1", "note": "[Example 328, 2-((5-(fluoromethyl)-3-(6-methylpyridazin-3-yl)isoxazol-4-yl)methyl)-5-(5-oxa-2-azaspiro[3.5]nonan-2-yl)pyridazin-3(2H)-one]", "values": [{"measurement": "Ki", "setting": "h-GABA-A α5β3γ2 [1]; [3]", "result": 12.6, "unit": "nM"}, {"measurement": "Efficacy (GABA) %", "setting": "h-GABA-A α5β3γ2 [2]; [4]", "result": 70, "unit": "%"}, {"measurement": "Fold increase h-GABA-A α5β3γ2 oocyte", "setting": "h-GABA-A α5β3γ2 [2]; [5]", "result": 1.7}]}, {"molecule": "Cc1onc(-c2ccc(Cl)nc2)c1Cn1ncc(N2CCC3(CCCCO3)CC2)cc1=O", "note": "[Example 333, 2-[[3-(6-chloro-3-pyridyl)-5-methyl-isoxazol-4-yl]methyl]-5-(1-oxa-9-azaspiro[5.5]undecan-9-yl)pyridazin-3-one]", "values": [{"measurement": "Ki", "setting": "h-GABA-A α5β3γ2 [1]; [3]", "result": 41.4, "unit": "nM"}, {"measurement": "Efficacy (GABA) %", "setting": "h-GABA-A α5β3γ2 [2]; [4]", "result": 190, "unit": "%"}, {"measurement": "Fold increase h-GABA-A α5β3γ2 oocyte", "setting": "h-GABA-A α5β3γ2 [2]; [5]", "result": 2.9}]}, {"molecule": "Cc1onc(-c2ccc(C(F)(F)F)nn2)c1Cn1ncc(N2CC3(CC[C@@H](F)CO3)C2)cc1=O", "note": "[Example 334, (R)-5-(7-fluoro-5-oxa-2-azaspiro[3.5]nonan-2-yl)-2-((5-methyl-3-(6-(trifluoromethyl)pyridazin-3-yl)isoxazol-4-yl)methyl)pyridazin-3(2H)-one]", "values": [{"measurement": "Ki", "setting": "h-GABA-A α5β3γ2 [1]; [3]", "result": 5.9, "unit": "nM"}, {"measurement": "Efficacy (GABA) %", "setting": "h-GABA-A α5β3γ2 [2]; [4]", "result": 105, "unit": "%"}, {"measurement": "Fold increase h-GABA-A α5β3γ2 oocyte", "setting": "h-GABA-A α5β3γ2 [2]; [5]", "result": 2.05}]}, {"molecule": "Cc1onc(-c2ccc(C(F)(F)F)nn2)c1Cn1ncc(N2CC3(CCCCO3)C2)cc1=O", "note": "[Example 335, 2-((5-methyl-3-(6-(trifluoromethyl)pyridazin-3-yl)isoxazol-4-yl)methyl)-5-(5-oxa-2-azaspiro[3.5]nonan-2-yl)pyridazin-3(2H)-one]", "values": [{"measurement": "Ki", "setting": "h-GABA-A α5β3γ2 [1]; [3]", "result": 9.2, "unit": "nM"}, {"measurement": "Efficacy (GABA) %", "setting": "h-GABA-A α5β3γ2 [2]; [4]", "result": 90, "unit": "%"}, {"measurement": "Fold increase h-GABA-A α5β3γ2 oocyte", "setting": "h-GABA-A α5β3γ2 [2]; [5]", "result": 1.9}]}, {"molecule": "Cc1onc(-c2ccccc2)c1COc1ccc(N2CCCC2)nn1", "note": "[RO-035, reference compound]", "values": [{"measurement": "Ki", "setting": "h-GABA-A α5β3γ2 [1]; reference compounds, Table 2", "result": 10.5, "unit": "nM"}, {"measurement": "Efficacy (GABA) %", "setting": "h-GABA-A α5β3γ2 [2]; [6]", "result": "−35", "unit": "%"}, {"measurement": "Fold increase h-GABA-A α5β3γ2 oocyte", "setting": "h-GABA-A α5β3γ2 [2]; reference compounds, Table 2", "result": 0.65}]}, {"molecule": "Cc1onc(-c2ccccc2)c1COc1ccc(N2CCOCC2)nn1", "note": "[RO-036, reference compound]", "values": [{"measurement": "Ki", "setting": "h-GABA-A α5β3γ2 [1]; reference compounds, Table 2", "result": 9.45, "unit": "nM"}, {"measurement": "Efficacy (GABA) %", "setting": "h-GABA-A α5β3γ2 [2]; [6]", "result": "−28", "unit": "%"}, {"measurement": "Fold increase h-GABA-A α5β3γ2 oocyte", "setting": "h-GABA-A α5β3γ2 [2]; reference compounds, Table 2", "result": 0.72}]}, {"molecule": "Cc1cc(C)n(-c2ccc(OCc3c(-c4ccccc4)noc3C)nn2)n1", "note": "[RO-039, reference compound]", "values": [{"measurement": "Ki", "setting": "h-GABA-A α5β3γ2 [1]; reference compounds, Table 2", "result": 5.15, "unit": "nM"}, {"measurement": "Efficacy (GABA) %", "setting": "h-GABA-A α5β3γ2 [2]; [6]", "result": "−17", "unit": "%"}, {"measurement": "Fold increase h-GABA-A α5β3γ2 oocyte", "setting": "h-GABA-A α5β3γ2 [2]; reference compounds, Table 2", "result": 0.83}]}, {"molecule": "Cc1onc(-c2ccccc2)c1COc1ccc(C(=O)N2CCOCC2)nn1", "note": "[RO-096, reference compound]", "values": [{"measurement": "Ki", "setting": "h-GABA-A α5β3γ2 [1]; reference compounds, Table 2", "result": 26, "unit": "nM"}, {"measurement": "Efficacy (GABA) %", "setting": "h-GABA-A α5β3γ2 [2]; [6]", "result": "−16", "unit": "%"}, {"measurement": "Fold increase h-GABA-A α5β3γ2 oocyte", "setting": "h-GABA-A α5β3γ2 [2]; reference compounds, Table 2", "result": 0.84}]}]}
